Converted amounts (≈) assume the structure as drawn. “And” between values parts separate entries of the source, which are not always exact repeats. Equal values may be shown once.
Legend:
[1] = Solubility in the phosphate buffer used in the examples; type: physicochemical; details: aqueous buffer, buffer 5 mM NaH2PO4, 0.15 M NaCl, pH 7.5, read-out: solubility against the buffer
Description: The solubility of the dihydric alcohol 1A against the buffer (5 mM NaH2PO4, 0.15 M NaCl, pH 7.5) used in the examples was about 10 mM.
The solubility of the dihydric alcohol 1B against the buffer (5 mM NaH2PO4, 0.15 M NaCl, pH 7.5) used in the examples was about 0.2 mM.

[2] = Membrane fusion experiment using MLV, change in fluorescence (F value, NBD-PE to Rh-PE energy transfer); details: for membrane fusion of MLV (in words): from F value over time
Source text: Examples of means for evaluating and observing a phase transition such as fusion of the membranes include observation by electron microscope, quantification of the produced pseudo-ceramide (for example, by mass spectrometry), and measurement of the change in fluorescence. In the case of measuring changes in fluorescence, a compound which causes a fluorescence energy transfer to another compound that present in the vicinity of the compound is introduced as a component of the bilayer membrane. Examples of such compounds include the combination of 1,2-dimyristyl-sn-glycero-3-phosphoethanolamine-N-(7-nitro-2-1,3-benzoxadiazol-4-yl) (NBD-PE) and 1,2-dimyristyl-sn-glycero-3-phosphoethanolamine-N-(lissamine rhodamine B sulfonyl) (Rh-PE). The former is the energy donor, and the latter is the energy acceptor. […] As for evaluating changes in the fluorescence, it is possible to use the fluorescence change F that is obtained by:
For example, when NBD-PE and Rh-PE are included in separate vesicles, the F value increases by fusion of the vesicles. To the contrary, when a vesicle including both NBD-PE and Rh-PE fuses with a vesicle including neither, the distance between the NBD-PE and Rh-PE increases so that the F value decreases.
First, 1 mL each of the MLV dispersions that contain a tertiary amine (C8 or C16) obtained in Example 1 were mixed at room temperature. A solution of 2-chloro-4,6-dimethoxy-1,3,5-triazin (CDMT) (150 mM or 300 mM) in methanol (21.7 μL) was added thereto, and allowed to stand at room temperature. Next, to the MLV dispersion obtained in Example 2, a solution of 4-(4,6-dimethoxy-1,3,5-triazin-2-yl)-4-methylmorpholium chloride (DMT-MM) (225 mM or 300 mM) in methanol (21.7 μL), which is a water-soluble dehydrating condensing agent, was added to prepare a mixture. As a control experiment, a mixture to which 21.7 μL of methanol was added instead of the CDMT solution was prepared.
The change in fluorescence over time of the prepared mixtures was measured with a fluorometer. The excitation wavelength was 470 nm. As mentioned above, the F value was used as the criterion for the change in fluorescence.

[3] = Change in particle size accompanying MLV fusion (DLS); details: MLV with C8-tertiary amine 0.2 equivalent, CDMT 50 equivalents
Description: The MLV dispersion prepared was separated into 2 mL portions, and 50 equivalents (21.7 μL) CDMT (300 mM in methanol) was added thereto. For the control, 21.7 μL of methanol was added. Two samples were prepared and the particle size after 12 hours was measured by dynamic light scattering (DLS).

[4] = Membrane fusion experiment using SUV (F value); details: SUV with C16-tertiary amine
Description: Sodium laurate (45.0 mM in methanol, 5.8 μL), the dihydric alcohol 1B (38.5 mM in chloroform, 6.8 μL), C16-tertiary amine (3.05 mM in chloroform, 17.0 μL), nonreduced egg yolk lecithin (13.0 mM in chloroform, 19.0 μL), and a fluorescent agent (for NBD-PE: 1.23 mM in chloroform, 10.6 μL; for Rh-PE: 4.19 mM in chloroform, 3.1 μL) were placed into a 20-mL eggplant-shaped flask, and the solvent was evaporated under reduced pressure using a rotary evaporator. The thin film formed on the inner well of the flask was further dried under reduced pressure using a vacuum pump (room temperature, 0.5 hours). Then, 4 mL of phosphate buffer (5 mM NaH2PO4/Na2HPO4, 0.15 M NaCl, pH 8.5) was added thereto, and ultrasonic waves were applied for 30 seconds using a bath-type ultrasonic wave generation device. Next, the mixture was stirred and shaken for 10 minutes with a vortex mixer at 100% strength. […]
Using the SUV dispersion containing NBD-PE and Rh-PE obtained in Example 6, the change in fluorescence over time was measured in the same way as in the membrane fusion experiment with MLV of Example 3. The F value was calculated from the intensity of the fluorescence peaks to evaluate SUV fusion.

[5] = SUV membrane fusion by fluorescence dilution method; details: CDMT 25 or 50 equivalents; SUV with and without fluorescent agent
Description: An SUV dispersion with a fluorescent agent and an SUV dispersion without a fluorescent agent, of the compositions shown in Table 5 were prepared according to the SUV preparation method described in Example 6.
First, 0.2 mL of the prepared SUV dispersion with a fluorescent agent and 1.8 mL of the SUV dispersion without a fluorescent agent were mixed at room temperature. Three samples were prepared for each SUV. To two of these samples 10.8 μL (25 equivalents) or 21.7 μL (50 equivalents) of CDMT (300 mM in methanol) was added respectively, and allowed to stand at room temperature. As a control experiment, 21.7 μL of methanol was added to the remaining sample, and also allowed to stand, and then the fluorescence was measured at a given time interval.
Unlike the mixing method of Example 7, in the case of the fluorescence dilution method of Example 8, the F value becomes smaller as fusion proceeds. […] It should be noted that in the graph of FIG. 5, it appears as if at initial state there is a difference between the control sample and the samples to which CDMT has been added.

[6] = Change in particle size accompanying SUV fusion (DLS); details: for Z average (average diameter): CDMT 50 equivalents; for number of SUVs fused, from change in particle size: about 3 hours
Description: SUV dispersions with the compositions shown in Table 6 were prepared in accordance with the SUV preparation method described in Example 6.
The prepared SUV dispersions were filtered through a 0.45-μm pore size filter and each was divided into two 2 mL samples, one of which was supplied with 21.7 μL (50 equivalents) of CDMT (300 mM in methanol) and the other supplied with 21.7 μL of methanol as a control experiment, and allowed to stand at room temperature. The particle size after three hours was measured by DLS.

[7] = Observation of SUV by transmission electron microscope; details: SUV with sodium laurate and C16-tertiary amine
Description: A SUV dispersion of the composition shown in Table 8 was prepared in accordance with the SUV preparation method described in Example 6.
To 200 μL of the prepared SUV dispersion, 4.3 μL of CDMT (300 mM in methanol) was added, and allowed to stand at room temperature. As a control experiment, 4.3 μL of methanol was added instead of CDMT, and allowed to stand at room temperature. Several drops of the SUV dispersion after standing were placed on a carrier, frozen with liquid nitrogen, and prepared specimens for electron microscopy (replicas) by a freeze fracturing method ordinarily performed by those skilled in the art (JEOL JFD-9010 was used). The specimens obtained were observed by TEM (JEOL JEM-1010) (acceleration voltage 100 kv). The arrows in the micrographs indicate the SUV.

[8] = Fusion experiment between active SUV and inactive SUV (fluorescence dilution); details: CDMT 35 equivalents; runs 2 and 3, one SUV inactive
Description: In accordance with the fluorescence dilution method described in Example 8, 0.2 mL of the prepared SUV dispersion with a fluorescent agent and 1.8 mL of the SUV dispersion without a fluorescent agent were mixed at room temperature. […] Then, 15.2 μL (4.55 μmol: 35 equivalents of the total fatty acid salt of run 1) of CDMT (300 mM in methanol) was added thereto, allowed to stand at room temperature, and the change in the F values over time was measured with a fluorometer.

[9] = Leaking of aqueous phase within SUV accompanying fusion (calcein); details: with fusion, CDMT 50 equivalents
Description: Accordingly, in this example, by utilizing the property of the compound, a fusion test was performed for liposomes in which (in the inner aqueous phase) calcein has been contained at a high concentration in advance.
The SUV was prepared according to the method described in Example 6. However, the calcein (75 mM) was added to a phosphate buffer (5 mM NaH2PO4/Na2HPO4, 0.15 M NaCl, pH 8), and ultrasonic wave treatment was performed to produce SUVs. The SUVs were separated by gel filter (Sephadex G-50, using the same phosphate buffer solution in the mobile phase) to remove the calcein present in the outside aqueous phase, giving a SUV dispersion.
CDMT (50 equivalents) was added to the obtained SUV dispersion, and allowed to stand at room temperature and the fluorescence (520 nm) was measured (FS) after a given time, and immediately after Triton X-100 (10%, 200 μL) was added to destroy the SUV, and then the fluorescence was measured again (FT). […] The rate of leakage was calculated by the following equation.
[formula] • F0: Fluorescence intensity at 0 hours • FS: Fluorescence intensity at each hour • FT: Fluorescence intensity after adding Triton X-100

`CCCCCCCCCCCCNCC(O)CO` (stereo not drawn) [dihydric alcohol 1B, 3-dodecylamino-1,2-propanediol] showed a solubility [1] of ~0.2 mM (≈ 51.9 µg/mL).
With `COc1nc(OC)nc([N+]2(C)CCOCC2)n1.[Cl-]` [DMT-MM, 4-(4,6-dimethoxy-1,3,5-triazin-2-yl)-4-methylmorpholium chloride] the “Change in fluorescence (F value)” value ([2]; DMT-MM 38 equivalents, MLV without tertiary amine, 36 hr) was 1.42, the “Change in fluorescence (F value)” value ([2]; DMT-MM 50 equivalents, MLV without tertiary amine, 36 hr) was 1.64 and the “membrane fusion of MLV (in words)” value [2] was “membrane fusion occurred extremely slowly”.
In the case of `CCCCCCCCNCC(O)CO` (stereo not drawn) [dihydric alcohol 1A, 3-octylamino-1,2-propanediol], the solubility [1] was ~10 mM (≈ 2030 µg/mL).
For `COc1nc(Cl)nc(OC)n1` [CDMT, 2-chloro-4,6-dimethoxy-1,3,5-triazin], the “Change in fluorescence (F value)” value ([2]; CDMT 25 equivalents, C16 tertiary amine in MLV, 2 hr) was 1.64, the “Change in fluorescence (F value)” value ([2]; CDMT 25 equivalents, C16 tertiary amine in MLV, 5 hr) was 8.10 and the “Change in fluorescence (F value)” value ([2]; CDMT 50 equivalents, C8 tertiary amine in MLV, 5 hr) was 2.22. For the same compound, the “Change in fluorescence (F value)” value ([2]; CDMT 50 equivalents, C8 tertiary amine in MLV, 12 hr) was 5.40, the “Change in fluorescence (F value)” value ([2]; CDMT 50 equivalents, C16 tertiary amine in MLV, 2 hr) was 4.41 and the “Change in fluorescence (F value)” value ([2]; CDMT 50 equivalents, C16 tertiary amine in MLV, 5 hr) was 10.4. The “membrane fusion of MLV (in words)” value [2] was “membrane fusion occurs”, the “Z average (average diameter)” value ([3]; 0 hr) was 235.2 nm and 232.4 nm and the “Z average (average diameter)” value ([3]; 12 hr) was 280.3 nm and 278.2 nm. For the same compound, the “SUV membrane fusion (F value, FIG. 4, in words)” value [4] was “membrane fusion occurred”, the “change in fluorescence, fluorescence dilution method (FIG. 5, in words)” value [5] was “a decrease in the fluorescence was found” and the “Z average (average diameter)” value ([6]; SUV with lauric acid, 0 hr) was 92.7 nm. The “Z average (average diameter)” value ([6]; SUV with lauric acid, 3 hr) was 218.7 nm, the “Z average (average diameter)” value ([6]; SUV with oleic acid, 0 hr) was 66.1 nm and the “Z average (average diameter)” value ([6]; SUV with oleic acid, 3 hr) was 213.8 nm. For the same compound, the “number of SUVs fused, from change in particle size” value ([6]; laurate SUV) was 10 to 20, the “number of SUVs fused, from change in particle size” value ([6]; oleate SUV) was 30 to 40 and the “particle size by TEM after CDMT addition” value [7] was “greater than 1 μm”. For the same compound, the “change in F value, active/inactive SUV combinations (FIG. 9, in words)” value [8] was “the F value significantly changes”, the Rate of leakage ([9]; 1 hr) was 6.5% and the Rate of leakage ([9]; 2 hr) was 7.1%. The Rate of leakage ([9]; 3 hr) was 8% and 8.3%.

From US10098841B2, “Method of inducing a phase transition of a bilayer membrane vesicle” (Japan Science and Technology Agency, priority 2005, dated 2018)
